According to ChEMBL document CHEMBL4308841, “Synthesis, in vitro antiproliferative activity, and kinase inhibitory effects of pyrazole-containing diarylureas and diarylamides” (Eur J Med Chem, 2018):

What was measured:
HCC 2998 = experiment: Growth inhibition of human HCC2998 cells incubated for 48 hrs by sulforhodamine B assay; type: functional, cell-based; settings: HCC 2998, 48 h
PC-3 [1] = experiment: Growth inhibition of human PC3 cells assessed as cell growth at 0.1 uM incubated for 48 hrs by sulforhodamine B assay relative to control; type: functional; settings: PC-3, 48 h, read-out: Activity
SR [2] = experiment: Growth inhibition of human SR cells assessed as cell growth at 0.01 uM incubated for 48 hrs by sulforhodamine B assay relative to control; type: functional; settings: read-out: Activity
UACC-257 = experiment: Growth inhibition of human UACC257 cells assessed as cell growth at 1 uM incubated for 48 hrs by sulforhodamine B assay relative to control; type: functional; settings: UACC-257, 48 h, read-out: Activity
SK-MEL-2 [3] = experiment: Growth inhibition of human SK-MEL-2 cells assessed as cell growth at 0.1 uM incubated for 48 hrs by sulforhodamine B assay relative to control; type: functional; settings: SK-MEL-2, 48 h, read-out: Activity
U-251 = experiment: Growth inhibition of human U251 cells assessed as cell growth at 0.1 uM incubated for 48 hrs by sulforhodamine B assay relative to control; type: functional; settings: U-251, 48 h, read-out: Activity
IGROV-1 = experiment: Growth inhibition of human IGROV1 cells assessed as cell growth at 1 uM incubated for 48 hrs by sulforhodamine B assay relative to control; type: functional; settings: IGROV-1, 48 h, read-out: Activity
UACC-62 = experiment: Growth inhibition of human UACC62 cells incubated for 48 hrs by sulforhodamine B assay; type: functional, cell-based; settings: UACC-62, 48 h
A549 [4] = experiment: Growth inhibition of human A549/ATCC cells assessed as cell growth at 0.01 uM incubated for 48 hrs by sulforhodamine B assay relative to control; type: functional; settings: A549, 48 h, read-out: Activity
NCI-H522 = experiment: Growth inhibition of human NCI-H522 cells assessed as cell growth at 1 uM incubated for 48 hrs by sulforhodamine B assay relative to control; type: functional; settings: NCI-H522, 48 h, read-out: Activity
SR [5] = experiment: Growth inhibition of human SR cells assessed as cell growth at 1 uM incubated for 48 hrs by sulforhodamine B assay relative to control; type: functional; settings: read-out: Activity
SK-MEL-28 = experiment: Growth inhibition of human SK-MEL-28 cells assessed as cell growth at 100 uM incubated for 48 hrs by sulforhodamine B assay relative to control; type: functional; settings: SK-MEL-28, 48 h, read-out: Activity
MDA-MB-435 = experiment: Growth inhibition of human MDA-MB-435 cells assessed as cell growth at 100 uM incubated for 48 hrs by sulforhodamine B assay relative to control; type: functional; settings: MDA-MB-435, 48 h, read-out: Activity
PC-3 [6] = experiment: Growth inhibition of human PC3 cells assessed as cell growth at 1 uM incubated for 48 hrs by sulforhodamine B assay relative to control; type: functional; settings: PC-3, 48 h, read-out: Activity
SK-MEL-5 [7] = experiment: Growth inhibition of human SK-MEL-5 cells assessed as cell growth at 0.1 uM incubated for 48 hrs by sulforhodamine B assay relative to control; type: functional; settings: SK-MEL-5, 48 h, read-out: Activity
MDA-MB-468 = experiment: Growth inhibition of human MDA-MB-468 cells assessed as cell growth at 0.1 uM incubated for 48 hrs by sulforhodamine B assay relative to control; type: functional; settings: MDA-MB-468, 48 h, read-out: Activity
SK-MEL-5 [8] = experiment: Growth inhibition of human SK-MEL-5 cells assessed as cell growth at 0.01 uM incubated for 48 hrs by sulforhodamine B assay relative to control; type: functional; settings: SK-MEL-5, 48 h, read-out: Activity
HT-29 = experiment: Growth inhibition of human HT-29 cells assessed as cell growth at 0.01 uM incubated for 48 hrs by sulforhodamine B assay relative to control; type: functional; settings: HT-29, 48 h, read-out: Activity
NCI-H23 = experiment: Growth inhibition of human NCI-H23 cells incubated for 48 hrs by sulforhodamine B assay; type: functional, cell-based; settings: NCI-H23, 48 h
786-0 = experiment: Growth inhibition of human 786-0 cells assessed as cell growth at 100 uM incubated for 48 hrs by sulforhodamine B assay relative to control; type: functional; settings: 786-0, 48 h, read-out: Activity
HOP-62 = experiment: Growth inhibition of human HOP62 cells assessed as cell growth at 100 uM incubated for 48 hrs by sulforhodamine B assay relative to control; type: functional; settings: HOP-62, 48 h, read-out: Activity
SN12C = experiment: Growth inhibition of human SN12C cells assessed as cell growth at 0.01 uM incubated for 48 hrs by sulforhodamine B assay relative to control; type: functional; settings: read-out: Activity
MCF7 = experiment: Growth inhibition of human MCF7 cells assessed as cell growth at 100 uM incubated for 48 hrs by sulforhodamine B assay relative to control; type: functional; settings: MCF7, 48 h, read-out: Activity
HL-60(TB) = experiment: Growth inhibition of human HL-60(TB) cells assessed as cell growth at 0.01 uM incubated for 48 hrs by sulforhodamine B assay relative to control; type: functional; settings: HL-60, 48 h, read-out: Activity
SK-MEL-2 [9] = experiment: Growth inhibition of human SK-MEL-2 cells assessed as cell growth at 100 uM incubated for 48 hrs by sulforhodamine B assay relative to control; type: functional; settings: SK-MEL-2, 48 h, read-out: Activity
NCI-H322M = experiment: Growth inhibition of human NCI-H322M cells assessed as cell growth at 1 uM incubated for 48 hrs by sulforhodamine B assay relative to control; type: functional; settings: read-out: Activity
BT-549 = experiment: Growth inhibition of human BT549 cells incubated for 48 hrs by sulforhodamine B assay; type: functional, cell-based; settings: BT-549, 48 h
A549 [10] = experiment: Growth inhibition of human A549/ATCC cells assessed as cell growth at 1 uM incubated for 48 hrs by sulforhodamine B assay relative to control; type: functional; settings: A549, 48 h, read-out: Activity
PC-3 [11] = experiment: Growth inhibition of human PC3 cells assessed as cell growth at 0.01 uM incubated for 48 hrs by sulforhodamine B assay relative to control; type: functional; settings: PC-3, 48 h, read-out: Activity
OVCAR-5 = experiment: Growth inhibition of human OVCAR5 cells incubated for 48 hrs by sulforhodamine B assay; type: functional, cell-based; settings: OVCAR-5, 48 h
[12] = read-out: pLC50 (the source's name) (converted)
[13] = read-out: LC50 (the source's name)

Question: For `COc1cc(Cl)cc(-c2nn(-c3cccc(NC(=O)Nc4cc(C(F)(F)F)cc(C(F)(F)F)c4)c3)cc2-c2ccncc2)c1`, which IC50 (HCC 2998) is on record?
Answer: 0.62 µM

Question: And the GI50 (HCC 2998; read-out: GI50)?
Answer: 0.622 µM

Question: What about the TGI (HCC 2998; read-out: TGI) of the same compound?
Answer: 4.95 µM

Question: What about the GI50 (HCC 2998; read-out: pGI50 (converted)) of the same compound?
Answer: 0.617 µM

Question: What about the CC50 (HCC 2998; [12]) of the same compound?
Answer: 42.7 µM

Question: And the TGI (HCC 2998; read-out: pTGI (converted))?
Answer: 5.01 µM

Question: What about the growth at 0.1 µM (PC-3 [1]) of the same compound?
Answer: 91%

Question: What about the growth at 0.01 µM (SR [2]) of the same compound?
Answer: 101%

Question: What about the growth at 1 µM (UACC-257) of the same compound?
Answer: 23%

Question: What about the growth at 0.1 µM (SK-MEL-2 [3]) of the same compound?
Answer: 95%

Question: And the growth at 0.1 µM (U-251)?
Answer: 91%

Question: And the growth at 1 µM (IGROV-1)?
Answer: 33%

Question: And the IC50 (UACC-62)?
Answer: 0.36 µM

Question: And the GI50 (UACC-62; read-out: GI50)?
Answer: 0.357 µM

Question: And the CC50 (UACC-62; [13])?
Answer: 0.0532 µM

Question: And the TGI (UACC-62; read-out: TGI)?
Answer: 1.5 µM

Question: And the GI50 (UACC-62; read-out: pGI50 (converted))?
Answer: 0.355 µM

Question: What about the CC50 (UACC-62; [12]) of the same compound?
Answer: 5.37 µM

Question: And the TGI (UACC-62; read-out: pTGI (converted))?
Answer: 1.51 µM

Question: What about the growth at 0.01 µM (A549 [4]) of the same compound?
Answer: 100%

Question: What about the growth at 1 µM (NCI-H522) of the same compound?
Answer: 18%

Question: What about the growth at 1 µM (SR [5]) of the same compound?
Answer: 28%

Question: And the growth at 100 µM (SK-MEL-28)?
Answer: -58%

Question: What about the growth at 100 µM (MDA-MB-435) of the same compound?
Answer: -81%

Question: And the growth at 1 µM (PC-3 [6])?
Answer: 5%

Question: What about the growth at 0.1 µM (SK-MEL-5 [7]) of the same compound?
Answer: 97%

Question: What about the growth at 0.1 µM (MDA-MB-468) of the same compound?
Answer: 89%

Question: And the growth at 0.01 µM (SK-MEL-5 [8])?
Answer: 100%

Question: What about the growth at 0.01 µM (HT-29) of the same compound?
Answer: 102%

Question: And the IC50 (NCI-H23)?
Answer: 0.33 µM

Question: What about the GI50 (NCI-H23; read-out: GI50) of the same compound?
Answer: 0.328 µM

Question: And the LC50 (NCI-H23; read-out: LC50)?
Answer: 0.05 µM

Question: And the TGI (NCI-H23; read-out: TGI)?
Answer: 1.6 µM

Question: And the GI50 (NCI-H23; read-out: pGI50 (converted))?
Answer: 0.331 µM

Question: And the LC50 (NCI-H23; read-out: pLC50 (converted))?
Answer: 50.1 µM

Question: What about the TGI (NCI-H23; read-out: pTGI (converted)) of the same compound?
Answer: 1.58 µM

Question: What about the growth at 100 µM (786-0) of the same compound?
Answer: -70%

Question: And the growth at 100 µM (HOP-62)?
Answer: -60%

Question: And the growth at 0.01 µM (SN12C)?
Answer: 96%

Question: And the growth at 100 µM (MCF7)?
Answer: -44%

Question: What about the growth at 0.01 µM (HL-60(TB)) of the same compound?
Answer: 92%

Question: And the growth at 100 µM (SK-MEL-2 [9])?
Answer: -83%

Question: And the growth at 1 µM (NCI-H322M)?
Answer: 49%

Question: And the IC50 (BT-549)?
Answer: 2.22 µM

Question: And the GI50 (BT-549; read-out: GI50)?
Answer: 2.22 µM

Question: And the TGI (BT-549; read-out: TGI)?
Answer: 7.14 µM

Question: What about the GI50 (BT-549; read-out: pGI50 (converted)) of the same compound?
Answer: 2.82 µM

Question: What about the CC50 (BT-549; [12]) of the same compound?
Answer: 61.7 µM

Question: What about the TGI (BT-549; read-out: pTGI (converted)) of the same compound?
Answer: 7.08 µM

Question: What about the growth at 1 µM (A549 [10]) of the same compound?
Answer: 15%

Question: And the growth at 0.01 µM (PC-3 [11])?
Answer: 101%

Question: What about the IC50 (OVCAR-5) of the same compound?
Answer: 1.46 µM

Question: What about the GI50 (OVCAR-5; read-out: GI50) of the same compound?
Answer: 1.46 µM

Question: What about the CC50 (OVCAR-5; [13]) of the same compound?
Answer: > 100 µM

Question: And the TGI (OVCAR-5; read-out: TGI)?
Answer: 12.8 µM

Question: What about the GI50 (OVCAR-5; read-out: pGI50 (converted)) of the same compound?
Answer: 1.45 µM

Question: What about the CC50 (OVCAR-5; [12]) of the same compound?
Answer: > 100 µM

Question: And the TGI (OVCAR-5; read-out: pTGI (converted))?
Answer: 12.9 µM
